Assay [1] deals with Mycobacterium bovis BCG. The class given is cell-based.
In assay [2] the test system is spores of Clostridium sporogenes ATCC 3584. The class given is cell-based. Conditions: pH 6.5, 10 hrs, Ambient.
The test system of assay [3] is Trichophyton mentagrophytes ATCC 9533. In words: AOAC Fungicidal Activity of Disinfectants (955.17). The class given is cell-based. The note with it: pH 6.5, 5 min, Ambient. The procedure: Activity against fungus, Trichophyton mentagrophytes ATCC 9533, was evaluated using the Fungicidal Activity of Disinfectants using Trichophyton mentagrophytes, Official Methods of Analysis of the Association of Official Analytical Chemists, paragraph 955.17. Composition KK was adjusted to pH 6.5 in synthetic hard water (400 ppm hardness) and tested for activity in the presence of a 5% organic soil load. Antimicrobial efficacy was determined by exposing stainless steel penicyclinders containing dried Trichophyton mentagrophytes to 10 mL of the test substance at the desired concentration, temperature and for the desired contact time. After which each penicylinder was removed aseptically and transferred to a neutralizing subculture medium. A peroxyacetic acid composition was also tested by this procedure.

The test system of assay [4] is Pseudomonas aeruginosa biofilm. As to the kind of experiment: Biofilm removal from stainless steel coupon.

From patent publication US8246758B2, “Neutral or alkaline medium chain peroxycarboxylic acid compositions and methods employing them” (Ecolab USA Inc., priority 2004, dated 2012) come the findings set out here.

The structures appear in SMILES notation. Read-outs that look alike come from different tables or passages of the source. Where only a bound is given, the exact number is not on record here.

Turning to `CC(=O)OO` [Peroxyacetic Acid], in assay [1], the “concentration of peroxyacetic acid needed to be as effective” value was at least 1250 ppm. For the same compound, the figures for the “# Negative Tubes/# Tubes Tested” value in assay [2] (1000 ppm) and in assay [3] (1000 ppm) were 59/60 and 10/10, respectively.

Consider `CCCCCCCC(=O)OO` [Peroxyoctanoic Acid], for which the figures for the “# Negative Tubes/# Tubes Tested” value in assay [2] (400 ppm) and in assay [3] (400 ppm) were 60/60 and 10/10, respectively.

As for `[Na+].[OH-]` [caustic, NaOH], in assay [4] (caustic (3% of 50% NaOH) for 3 min at 160° F.), the “survivors on enrichment of treated coupons” value is reported as “survivors on one of two coupons”. Moreover, the “biofilm cleaning performance, ranking” value in assay [4] (total 6 min at 160° F., synthetic hard water 500 ppm, acridine orange fluorescence imaging) is “lastly”.
